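Five compound concentrations were applied to cells in 96-well plates for 48 hours; endpoints were derived by simple linear interpolation of the resulting dose-response curve. The concentration for 50% growth inhibition is given as GI50. Definition used: TGI = concentration required for complete inhibition of growth.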

Experimental findings from PubChem BioAssay (NCI) are described below.

Among the test systems are COLO 205 colon; HCT-15 colon; HT29 colon; OVCAR-5 ovarian; PC-3 prostate; SF-268 CNS; SR leukemia; SW-620 colon; TK-10 renal; U251 CNS.
Common to all, as to assay: NCI-60 cell line screen, 48 h

With `N/C(=N\O)c1cn(C2OC(CO)C(O)C2O)c2ncnc(N)c12` (centres undefined), the GI50 with COLO 205 colon was 131 nM; in the assay with HCT-15 colon it was 133 nM; with HT29 colon, 226 nM; in the assay on OVCAR-5 ovarian, 507 nM; with PC-3 prostate, 343 nM; in the assay on SF-268 CNS, 105 nM. Further, the GI50 in the assay with SR leukemia is 87.6 nM; with SW-620 colon, 88.3 nM; in the assay with TK-10 renal, 204 nM; in the assay with U251 CNS, 185 nM. Besides, the TGI with COLO 205 colon is 601 nM; with HCT-15 colon, above 47.8 µM; with HT29 colon it was 18.6 µM; with OVCAR-5 ovarian it was above 40.5 µM; with PC-3 prostate, 5.79 µM; with SF-268 CNS, above 21.5 µM. Besides, the TGI with SR leukemia was 14.8 µM; with TK-10 renal, 7.49 µM; in the assay on U251 CNS, above 71.7 µM.
Turning to `CC(=O)Nc1ccc(S(=O)(=O)N2C(=O)CCC2C(=O)Nc2ccccc2)cc1` (centres undefined), the GI50 in the assay with COLO 205 colon is 872 nM; with HCT-15 colon, 293 nM; in the assay with HT29 colon, 2060 nM; in the assay on OVCAR-5 ovarian it was 3160 nM; with PC-3 prostate, 1080 nM; in the assay with SF-268 CNS, 3820 nM. Besides, the GI50 in the assay on SR leukemia is 913 nM; with SW-620 colon, 405 nM; in the assay on TK-10 renal it was 1910 nM; in the assay on U251 CNS it was 1590 nM. Also, the TGI in the assay with COLO 205 colon turned out to be 4380 nM; in the assay on HCT-15 colon, 14.8 µM; in the assay with HT29 colon it was 19.4 µM; with OVCAR-5 ovarian it was 20.2 µM; in the assay with PC-3 prostate, 15.7 µM; in the assay on SF-268 CNS, 23.3 µM. Besides, the TGI with SR leukemia is 12.1 µM; with SW-620 colon, 16.7 µM; in the assay with TK-10 renal, 13.5 µM; with U251 CNS, 13.3 µM.
